Measurements published in patent EP3574917A1, “ANTI-CANCER AGENT, METHOD FOR SCREENING FOR ANTI-CANCER AGENT, KIT FOR DETERMINATION OF EFFICACY ON CANCER, AND METHOD FOR DETERMINING EFFICACY ON CANCER” (University of Miyazaki, priority 2017, dated 2018).

Tests used:
Assay in all cases: cellular proliferative potential (cell counting kit-8)
Assay type in all cases: cell-based
MOLT4 = settings: MOLT4, without the decreased expression of NDRG2, AdOX added at start of culture
Protocol: (§1) In the following Examples, HTLV-1-uninfected T-cell lymphocytic acute leukemia T-ALL (Jurkat and MOLT4), an HTLV-1-infected cell line (HUT102), an ATLL cell line (KOB), an osteosarcoma cell line (U2OS), and a uterine cancer cell line (HeLa) were used as cell lines. The cell lines described above were cultured in a RPM11640 or DMEM culture solution, to which 10% fetal bovine serum (FBS) supplemented or unsupplemented with IL2 (50 U/mL) was added, under 5% carbon dioxide at 37°C.
(§2) For each established cell line, 2 ×10^3 cells were cultured on a 96-well plate, and cell counting kit-8 (manufactured by DOJINDO CO., LTD) was added at a predetermined time. The number of cells was quantified based on an absorbance of 450 nm or 490 nm, to evaluate cellular proliferative potential.
(§3) In addition to HUT102 and KOB, Jurkat and MOLT4 were cultured. At the time of the start of the culture, AdOX (manufactured by Sigma-Aldrich Co. LLC) as a PRMT5 inhibitor was added to each culture medium. Like the Examples 2 described above, cellular proliferative potential was evaluated.

Jurkat = settings: without the decreased expression of NDRG2, AdOX added at start of culture
Protocol: as §1, §2, §3

HUT102 = HUT102 (NDRG2 hardly expressed), AdOX added to culture medium at start of culture, over time
Protocol: as §1, §2, §3

KOB = KOB (NDRG2 hardly expressed), AdOX added to culture medium at start of culture, over time
Protocol: as §1, §2, §3

U2OS = U2OS (NDRG2 hardly expressed), in the presence of AdOX, over time
Protocol: as §1, §2
(§4) In the cell lines of a solid cancer, the influence of the decreased expression of a PRMT5 gene was also evaluated in a manner similar to the manner of Example 2. The cellular proliferative potential of the parent lines, shluc cell lines, shPRMT5-3 cell lines, and shPRMT5-4 cell lines of U2OS and HeLa, and an influence on the cellular proliferative potential of a PRMT inhibitor were evaluated.

HeLa = HeLa (NDRG2 hardly expressed), in the presence of AdOX, over time
Protocol: as §1, §2, §4

Structure (SMILES): Nc1ncnc2c1ncn2[C@@H](C=O)O[C@@H](C=O)CO [AdOX, adenosine-2',3'-dialdehyde]
- suppression of cell proliferation (MOLT4): not observed
- suppression of cell proliferation (Jurkat): not observed
- suppression of cell proliferation (HUT102): exhibited the suppression of cell proliferation in concentration-dependent manners
- suppression of cell proliferation (KOB): exhibited the suppression of cell proliferation in concentration-dependent manners
- suppression of cell proliferation (U2OS): suppressed cell proliferation in a concentration-dependent manner
- suppression of cell proliferation (HeLa): suppressed cell proliferation in a concentration-dependent manner
